For 12 compounds, IC50 and GI50 results are on record in patent US20220288069A1, “INHIBITORS OF TYROSINE KINASE” (BridGene Biosciences, Inc., priority 2019, published 2022).

In assay [1] the target is T1, FLT3 (Homo sapiens, UniProt P36888).
T1 construct: purchased ThermoFisher PV3182
T1 sequence (P36888 27-993): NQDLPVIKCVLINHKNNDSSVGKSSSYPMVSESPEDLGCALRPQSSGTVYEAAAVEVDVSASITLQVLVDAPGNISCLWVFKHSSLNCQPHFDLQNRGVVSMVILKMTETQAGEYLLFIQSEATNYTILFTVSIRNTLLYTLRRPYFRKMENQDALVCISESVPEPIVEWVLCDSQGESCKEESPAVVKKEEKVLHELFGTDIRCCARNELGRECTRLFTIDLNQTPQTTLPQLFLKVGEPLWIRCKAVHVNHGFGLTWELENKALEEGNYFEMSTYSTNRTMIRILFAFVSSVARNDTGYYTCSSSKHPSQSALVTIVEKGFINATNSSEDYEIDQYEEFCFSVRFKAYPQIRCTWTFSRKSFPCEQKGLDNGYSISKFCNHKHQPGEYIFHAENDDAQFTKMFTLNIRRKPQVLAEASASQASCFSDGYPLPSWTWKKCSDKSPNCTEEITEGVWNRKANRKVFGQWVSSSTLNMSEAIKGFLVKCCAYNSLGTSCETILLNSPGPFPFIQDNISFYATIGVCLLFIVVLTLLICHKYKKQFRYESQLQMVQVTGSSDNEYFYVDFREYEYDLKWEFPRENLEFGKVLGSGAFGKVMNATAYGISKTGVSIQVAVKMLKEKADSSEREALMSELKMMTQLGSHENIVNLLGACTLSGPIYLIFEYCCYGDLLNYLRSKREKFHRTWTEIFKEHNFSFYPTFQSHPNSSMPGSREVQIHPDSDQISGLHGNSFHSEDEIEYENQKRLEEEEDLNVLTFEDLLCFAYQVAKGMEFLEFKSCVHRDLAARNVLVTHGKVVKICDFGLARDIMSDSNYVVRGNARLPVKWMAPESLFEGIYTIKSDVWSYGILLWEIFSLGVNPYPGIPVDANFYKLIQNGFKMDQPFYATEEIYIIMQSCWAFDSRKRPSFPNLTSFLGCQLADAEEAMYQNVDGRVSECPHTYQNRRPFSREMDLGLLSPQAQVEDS
Description: Caliper mobility shift kinase inhibition assay, FLT3. The assay is classed as biochemical. The settings on record: recombinant kinase; enzyme 0.1 nM, ATP 95 μM, incubation 3 hr. As to the method: (§1) Compounds' inhibition of recombinant kinases (FGR, FLT3, FMS, KIT, or RON) was measured using Caliper mobility shift assay, which is based on the difference in capillary electrophoresis mobility of a fluorescent-tagged peptide as a result of a phosphorylation by the kinase under study. Reactions were started by the addition of various concentrations of a compound (originally in DMSO solution) to a kinase solution in assay buffer followed by addition of a mixture of ATP and a fluorescent-tagged peptide substrate in assay buffer. Concentrations of the enzyme, ATP and the peptide were pre-optimized so that 15% substrate conversion to ensure initial velocity measurements. After incubation for 3 hours at room temperature, the kinase reaction was quenched by the addition of a concentrated EDTA solution before analysis on a LabChip EZ Reader II to yield percentage inhibition by comparing to the DMSO control.
(§2) Table 2 below summarizes the assay conditions for the characterization of the kinase inhibition properties of the disclosed compounds.

Assay [2] concerns the target T2, KIT (Homo sapiens, UniProt P10721).
T2 construct: purchased BPS 40250
Description: Caliper mobility shift kinase inhibition assay, KIT. The assay is classed as biochemical. The settings on record: recombinant kinase; enzyme 0.9 nM, ATP 400 μM, incubation 17 hr. As to the method:
as §1, with “After incubation for 3 hours at room temperature, the kinase reaction was quenched by the addition of a concentrated EDTA solution before analysis on a LabChip EZ Reader II to yield percentage inhibition by comparing to the DMSO control.” left out
as §2

Assay [3] concerns MV4−11. Description: Cell viability assay (CellTiter-Glo), MV4-11. The assay is classed as cell-based. To be noted: Homo sapiens, MV4-11 cells, 72 hr. As to the method:
(§3) Cell viability assay was performed based on the following brief procedures. Cells were plated at the density of 5K/well with volume of […] in 96-well white plate and clear bottom plates. 20 μL of veh. or compound was added at proper concentration to the well. The final volume is 200 μL, with final conc. of DMSO32 0.1%, 11 points, triplicates. The cells were then treated at 37° C. in the TC incubator for 72 hr. Equal volume (200 μL) of CellTiter-Glo reagent (Promega) was added to the well and protect from light at room temperature for 15 min. The chemiluminicent was measured with EnSight (Perkin Elmer). GraphPad Prism non-linear regression, Log[inhibitor] response with four parameters were used to calculate GI50.
On the technique in general: ATP-based viability assays read luminescence as a measure of living cells.

The test system of assay [4] is Kasumi−1. Description: Cell viability assay (CellTiter-Glo), Kasumi-1. The assay is classed as cell-based. The settings on record: Homo sapiens, Kasumi-1 cells, 72 hr. As to the method:
as §3

The test system of assay [5] is THP−1. Description: Cell viability assay (CellTiter-Glo), THP-1. The assay is classed as cell-based. The settings on record: Homo sapiens, THP-1 cells, 72 hr. As to the method: as §3
In assay [6] the target is T3, FGR (Homo sapiens, UniProt P09769).
T3 construct: purchased BPS 4022
Description: Caliper mobility shift kinase inhibition assay, FGR. The assay is classed as biochemical. The settings on record: recombinant kinase; enzyme 0.3 nM, ATP 50 μM, incubation 3 hr. As to the method: as §1, §2

Assay [7] concerns the target T4, FMS (Homo sapiens, UniProt P07333).
T4 construct: purchased Invitrogen PV3249
Description: Caliper mobility shift kinase inhibition assay, FMS. The settings on record: recombinant kinase; enzyme 0.25 nM, ATP 100 μM, incubation 3 hr. The assay is classed as biochemical. As to the method:
as §1, §2

Assay [8] has as its target T5, RON (Homo sapiens, UniProt Q04912).
T5 construct: purchased Invitrogen PV4314
Description: Caliper mobility shift kinase inhibition assay, RON. The assay is classed as biochemical. To be noted: recombinant kinase; enzyme 0.4 nM, ATP 20 μM, incubation 3 hr. As to the method:
as §1, §2

T2 sequence (P10721 26-976): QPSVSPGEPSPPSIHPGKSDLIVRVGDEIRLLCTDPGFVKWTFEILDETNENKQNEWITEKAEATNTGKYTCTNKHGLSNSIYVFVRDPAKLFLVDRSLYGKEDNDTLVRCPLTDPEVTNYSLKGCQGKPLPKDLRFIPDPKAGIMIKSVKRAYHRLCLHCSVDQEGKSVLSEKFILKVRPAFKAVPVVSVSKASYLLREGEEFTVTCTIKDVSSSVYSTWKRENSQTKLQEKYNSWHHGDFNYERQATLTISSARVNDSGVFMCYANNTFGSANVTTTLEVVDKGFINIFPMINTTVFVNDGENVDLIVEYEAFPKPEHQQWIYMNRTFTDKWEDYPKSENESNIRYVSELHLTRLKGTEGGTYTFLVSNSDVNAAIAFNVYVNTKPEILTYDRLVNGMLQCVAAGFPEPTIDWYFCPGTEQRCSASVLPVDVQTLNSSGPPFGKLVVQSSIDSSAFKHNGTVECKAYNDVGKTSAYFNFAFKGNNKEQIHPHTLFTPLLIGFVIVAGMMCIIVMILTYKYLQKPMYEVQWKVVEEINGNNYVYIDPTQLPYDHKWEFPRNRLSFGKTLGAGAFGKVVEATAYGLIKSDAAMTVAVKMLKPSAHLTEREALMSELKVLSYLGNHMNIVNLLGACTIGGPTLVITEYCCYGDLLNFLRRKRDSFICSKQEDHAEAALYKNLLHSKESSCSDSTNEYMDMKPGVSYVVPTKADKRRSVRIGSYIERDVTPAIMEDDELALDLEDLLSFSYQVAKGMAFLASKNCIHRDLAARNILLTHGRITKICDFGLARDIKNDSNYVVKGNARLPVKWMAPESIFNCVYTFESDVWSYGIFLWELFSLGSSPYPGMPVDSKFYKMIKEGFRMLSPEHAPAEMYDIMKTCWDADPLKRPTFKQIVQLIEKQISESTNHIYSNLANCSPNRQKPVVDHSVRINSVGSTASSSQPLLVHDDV
T4 sequence (P07333 20-972): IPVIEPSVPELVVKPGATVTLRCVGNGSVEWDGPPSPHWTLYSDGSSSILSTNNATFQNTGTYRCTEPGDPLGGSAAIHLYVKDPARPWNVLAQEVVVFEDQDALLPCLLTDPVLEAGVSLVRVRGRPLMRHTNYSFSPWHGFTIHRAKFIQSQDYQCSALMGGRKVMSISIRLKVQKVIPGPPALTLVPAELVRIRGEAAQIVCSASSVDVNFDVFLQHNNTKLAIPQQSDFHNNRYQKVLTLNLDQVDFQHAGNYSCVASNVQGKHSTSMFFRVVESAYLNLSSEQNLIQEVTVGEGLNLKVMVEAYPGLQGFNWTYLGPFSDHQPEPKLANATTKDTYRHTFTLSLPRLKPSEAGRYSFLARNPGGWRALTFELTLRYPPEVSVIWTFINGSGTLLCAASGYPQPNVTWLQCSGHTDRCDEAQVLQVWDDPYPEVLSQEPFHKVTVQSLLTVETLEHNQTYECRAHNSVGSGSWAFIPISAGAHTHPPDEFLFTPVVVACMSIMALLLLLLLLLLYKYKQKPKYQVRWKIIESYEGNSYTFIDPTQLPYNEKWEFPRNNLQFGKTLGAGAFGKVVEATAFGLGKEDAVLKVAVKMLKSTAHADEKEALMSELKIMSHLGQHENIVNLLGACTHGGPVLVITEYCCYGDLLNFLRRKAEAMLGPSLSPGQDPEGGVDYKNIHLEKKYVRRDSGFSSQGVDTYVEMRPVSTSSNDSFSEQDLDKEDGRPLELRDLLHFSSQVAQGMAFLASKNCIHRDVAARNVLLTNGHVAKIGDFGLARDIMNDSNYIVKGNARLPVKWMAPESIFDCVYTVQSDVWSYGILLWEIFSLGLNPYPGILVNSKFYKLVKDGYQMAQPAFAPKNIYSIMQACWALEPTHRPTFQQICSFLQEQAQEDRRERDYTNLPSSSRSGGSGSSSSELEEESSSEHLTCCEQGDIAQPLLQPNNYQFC
T5 sequence (Q04912 25-1400): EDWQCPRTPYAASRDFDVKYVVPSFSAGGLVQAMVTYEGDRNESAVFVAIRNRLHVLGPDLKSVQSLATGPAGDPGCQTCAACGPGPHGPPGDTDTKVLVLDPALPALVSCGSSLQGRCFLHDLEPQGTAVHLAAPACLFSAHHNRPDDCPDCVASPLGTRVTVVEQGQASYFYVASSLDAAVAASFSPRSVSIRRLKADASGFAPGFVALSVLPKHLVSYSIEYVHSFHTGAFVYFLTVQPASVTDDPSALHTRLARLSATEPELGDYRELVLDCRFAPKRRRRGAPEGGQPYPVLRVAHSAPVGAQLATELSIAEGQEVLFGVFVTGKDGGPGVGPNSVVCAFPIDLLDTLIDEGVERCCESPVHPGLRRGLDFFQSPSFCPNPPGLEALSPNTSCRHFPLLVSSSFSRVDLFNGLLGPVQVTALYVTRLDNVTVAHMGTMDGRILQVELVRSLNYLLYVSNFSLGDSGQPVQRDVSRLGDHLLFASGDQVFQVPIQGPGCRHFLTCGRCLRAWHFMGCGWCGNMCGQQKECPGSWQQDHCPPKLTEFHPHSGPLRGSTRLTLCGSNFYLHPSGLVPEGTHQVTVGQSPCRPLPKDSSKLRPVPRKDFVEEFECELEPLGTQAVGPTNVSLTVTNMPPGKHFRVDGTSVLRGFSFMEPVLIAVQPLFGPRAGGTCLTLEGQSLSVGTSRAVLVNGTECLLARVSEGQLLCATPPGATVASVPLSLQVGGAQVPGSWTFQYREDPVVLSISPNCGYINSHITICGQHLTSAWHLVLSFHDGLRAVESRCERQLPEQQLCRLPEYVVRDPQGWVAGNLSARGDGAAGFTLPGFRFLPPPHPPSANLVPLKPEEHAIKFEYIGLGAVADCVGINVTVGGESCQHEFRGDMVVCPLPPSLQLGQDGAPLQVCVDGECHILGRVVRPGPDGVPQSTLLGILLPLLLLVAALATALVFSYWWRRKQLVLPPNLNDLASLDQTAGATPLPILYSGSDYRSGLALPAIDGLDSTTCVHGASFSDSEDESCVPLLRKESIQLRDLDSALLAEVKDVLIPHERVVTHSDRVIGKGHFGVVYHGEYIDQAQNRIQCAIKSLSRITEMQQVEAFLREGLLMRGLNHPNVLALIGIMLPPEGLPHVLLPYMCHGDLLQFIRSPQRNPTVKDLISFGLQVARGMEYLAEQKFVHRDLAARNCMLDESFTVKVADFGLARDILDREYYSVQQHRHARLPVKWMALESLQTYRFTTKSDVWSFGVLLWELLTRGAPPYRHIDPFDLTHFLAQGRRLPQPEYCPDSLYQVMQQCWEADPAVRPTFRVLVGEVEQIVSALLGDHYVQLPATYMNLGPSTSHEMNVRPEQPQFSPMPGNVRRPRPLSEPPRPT
T3 sequence (P09769 whole entry): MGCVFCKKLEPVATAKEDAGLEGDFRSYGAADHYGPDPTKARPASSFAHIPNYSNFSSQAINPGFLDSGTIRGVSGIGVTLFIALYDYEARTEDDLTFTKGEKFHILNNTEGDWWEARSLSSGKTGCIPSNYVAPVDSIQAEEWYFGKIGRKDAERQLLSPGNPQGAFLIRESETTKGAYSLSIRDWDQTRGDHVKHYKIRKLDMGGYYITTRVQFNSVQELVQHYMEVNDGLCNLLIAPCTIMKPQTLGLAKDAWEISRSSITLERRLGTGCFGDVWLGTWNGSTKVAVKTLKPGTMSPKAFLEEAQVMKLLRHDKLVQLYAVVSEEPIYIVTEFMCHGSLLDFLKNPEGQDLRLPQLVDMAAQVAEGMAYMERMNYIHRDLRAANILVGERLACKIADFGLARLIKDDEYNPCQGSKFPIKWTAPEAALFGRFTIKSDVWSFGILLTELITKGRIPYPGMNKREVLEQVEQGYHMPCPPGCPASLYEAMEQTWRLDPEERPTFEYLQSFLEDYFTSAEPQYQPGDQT

With `C=CC(=O)N(C)[C@@H](C)C(=O)NCCNc1cc(Nc2ncc(-c3ccccc3)s2)nc(C)n1` [Compound 9, (2S)—N-[2-[[2-methyl-6-[(5-phenylthiazol-2-yl)amino]pyrimidin-4-yl]amino]ethyl]-2-[methyl(prop-2-enoyl)amino]propanamide], the half-inhibitory concentration (IC50) in assay [1] and in assay [2] was under 10 nM throughout. Also, the GI50 in assay [3] is under 10 nM; in assay [4], under 10 nM; in assay [5] it was at least 1000 nM.
Take `Cc1cc(Nc2cc(NCCNC(=O)[C@@H]3CCCN3C(=O)/C=C/CN(C)C)nc(Nc3ccc(CC#N)cc3)n2)n[nH]1` [Compound 3]: the concentration for half-maximal inhibition (IC50) in assay [1] and in assay [2] was under 10 nM each time. The results for the GI50 in assay [3], in assay [4] and in assay [5] were 10 to 100 nM, at least 1000 nM and at least 1000 nM, respectively.
As for `C=CC(=O)N(C)[C@@H](C)C(=O)NCCNc1cc(Nc2ncc(-c3ccncc3)s2)nc(C)n1` [Compound 17, (2S)-2-[methyl(prop-2-enoyl)amino]-N-[2-[[2-methyl-6-[[5-(4-pyridyl)thiazol-2-yl]amino]pyrimidin-4-yl]amino]ethyl]propanamide], the IC50 in assay [1] and in assay [2] was under 10 nM in each case. In addition, the values for the GI50 in assay [3], in assay [4] and in assay [5] were under 10 nM, under 10 nM and at least 1000 nM, respectively.
Take `C=CC(=O)N(C)[C@@H](C)C(=O)NCCOc1cc(C)nc(Nc2ncc(-c3ccccc3)s2)c1` [Compound 12, (2S)—N-[2-[[2-methyl-6-[(5-phenylthiazol-2-yl)amino]-4-pyridyl]oxy]ethyl]-2-[methyl(prop-2-enoyl)amino]propanamide]: the IC50 in assay [1] and in assay [2] was under 10 nM each time. Moreover, the GI50 in assay [3] was under 10 nM; in assay [4], under 10 nM; in assay [5], at least 1000 nM.
In the case of `CC#CC(=O)N(C)[C@@H](C)C(=O)NCCNc1cc(Nc2ncc(-c3ccncc3)s2)nc(C)n1` [Compound 18, N-methyl-N-[(1S)-1-methyl-2-[2-[[2-methyl-6-[[5-(4-pyridyl)thiazol-2-yl]amino]pyrimidin-4-yl]amino]ethylamino]-2-oxo-ethyl]but-2-ynamide], the IC50 in assay [1] and in assay [2] was under 10 nM throughout. The figures for the GI50 in assay [3], in assay [4] and in assay [5] were under 10 nM, under 10 nM and at least 1000 nM, respectively.
Consider `C=CC(=O)N(C)[C@@H](C)C(=O)NCCNc1cc(Nc2cc(C3CCC3)[nH]n2)nc(Nc2ccc(CC#N)cc2)n1` [Compound 4, (2S)—N-[2-[[2-[4-(cyanomethyl)anilino]-6-[(5-cyclobutyl-1H-pyrazol-3-yl)amino]pyrimidin-4-yl]amino]ethyl]-2-[methyl(prop-2-enoyl)amino]propanamide], for which the 50% inhibitory concentration (IC50) was under 10 nM in assay [1] and 10 to 100 nM in assay [2]. The GI50 in assay [3] was under 10 nM; in assay [4] it was 100 to 1000 nM; in assay [5] it was 100 to 1000 nM.
For the compound `CCC(=O)N(C)[C@@H](C)C(=O)NCCNc1cc(Nc2ncc(-c3ccccc3)s2)nc(C)n1` [Compound 10, (2S)—N-[2-[[2-methyl-6-[(5-phenylthiazol-2-yl)amino]pyrimidin-4-yl]amino]ethyl]-2-[methyl(propanoyl)amino]propanamide], the IC50 in assay [1] and in assay [2] was 10 to 100 nM throughout. Also, the GI50 in assay [3] is under 10 nM; in assay [4], 10 to 100 nM; in assay [5], at least 1000 nM.
`CC#CC(=O)N(C)[C@@H](C)C(=O)NCCNc1cc(Nc2cc(C3CCC3)[nH]n2)nc(Nc2ccc(CC#N)cc2)n1` [Compound 5, N-[(1S)-2-[2-[[2-[4-(cyanomethyl)anilino]-6-[(5-cyclobutyl-1H-pyrazol-3-yl)amino]pyrimidin-4-yl]amino]ethylamino]-1-methyl-2-oxo-ethyl]-N-methyl-but-2-ynamide]: the IC50 in assay [1] is under 10 nM; in assay [2], 10 to 100 nM. In addition, the 50% growth inhibitory concentration (GI50) in assay [3] was under 10 nM; in assay [4] it was at least 1000 nM; in assay [5], at least 1000 nM.
Take `Cc1c(C(=O)NCCNC(=O)[C@H](C)N(C)C(=O)/C=C/CN(C)C)c[nH]c1/C=C1\C(=O)Nc2ccc(F)cc21` [Compound 26, N-(2-((S)-2-((E)-4-(dimethylamino)-N-methylbut-2-enamido)propanamido)ethyl)-5-((Z)-(5-fluoro-2-oxoindolin-3-ylidene)methyl)-4-methyl-1H-pyrrole-3-carboxamide]: the 50% inhibitory concentration (IC50) in assay [6] was 100 to 1000 nM; in assay [1] it was under 10 nM; in assay [7], under 10 nM; in assay [2] it was under 10 nM; in assay [8] it was 100 to 1000 nM. Further, the figures for the GI50 in assay [3] and in assay [5] were under 10 nM and at least 1000 nM, respectively.
Consider `CCc1nc(NCCNC(=O)[C@H](C)N(C)C(=O)/C=C/CN(C)C)cc(Nc2ncc(C3CCC3)s2)n1` [Compound 8, (E)-N-[(1S)-2-[2-[[6-[(5-cyclobutylthiazol-2-yl)amino]-2-ethyl-pyrimidin-4-yl]amino]ethylamino]-1-methyl-2-oxo-ethyl]-4-(dimethylamino)-N-methyl-but-2-enamide], for which the concentration for half-maximal inhibition (IC50) in assay [1] was under 10 nM. The GI50 is under 10 nM in assay [3], 100 to 1000 nM in assay [4] and at least 1000 nM in assay [5].
As to `Cc1cc(Nc2cc(NCCNC(=O)[C@H](C)N(C)C(=O)/C=C/CN(C)C)nc(Nc3ccc(CC#N)cc3)n2)n[nH]1` [Compound 1], the IC50 in assay [6] was 10 to 100 nM; in assay [1] it was under 10 nM; in assay [7], under 10 nM; in assay [2], under 10 nM; in assay [8], 100 to 1000 nM. For the same compound, the 50% growth inhibitory concentration (GI50) in assay [3] is under 10 nM; in assay [4] it was 100 to 1000 nM; in assay [5] it was at least 1000 nM.
For `C=CC(=O)N(C)[C@@H](C)C(=O)NCCOc1cc(Nc2ncc(-c3ccccc3)s2)nc(C)n1` [Compound 13, (2S)—N-[2-[2-methyl-6-[(5-phenylthiazol-2-yl)amino]pyrimidin-4-yl]oxyethyl]-2-[methyl(prop-2-enoyl)amino]propanamide], the IC50 in assay [1] and in assay [2] was under 10 nM throughout. For the same compound, the GI50 was under 10 nM in assay [3], under 10 nM in assay [4] and at least 1000 nM in assay [5].

Broadly, the IC50 is the midpoint of a concentration-inhibition curve. In general, GI50 refers to the concentration giving 50% growth inhibition. Read a low GI50 as more potent growth inhibition.
